Reference: US20160159814A1, “GLYCINE TRANSPORTER INHIBITOR” (TAISHO PHARMACEUTICAL CO., LTD., priority 2013, published 2016)

target: T1, human type 1 glycine transporter (GlyT1) (Homo sapiens, UniProt P48067); assay: Glycine uptake inhibition experiment ([3H] glycine uptake in T98G cells expressing GlyT1); type: cell-based; settings: not given
T1 construct: T98G cells (glioma cells) expressing human type 1 glycine transporter (GlyT1) were used; endogenous in cells; host or cells: T98G cells (human glioma cells)
T1 sequence (P48067 1-706): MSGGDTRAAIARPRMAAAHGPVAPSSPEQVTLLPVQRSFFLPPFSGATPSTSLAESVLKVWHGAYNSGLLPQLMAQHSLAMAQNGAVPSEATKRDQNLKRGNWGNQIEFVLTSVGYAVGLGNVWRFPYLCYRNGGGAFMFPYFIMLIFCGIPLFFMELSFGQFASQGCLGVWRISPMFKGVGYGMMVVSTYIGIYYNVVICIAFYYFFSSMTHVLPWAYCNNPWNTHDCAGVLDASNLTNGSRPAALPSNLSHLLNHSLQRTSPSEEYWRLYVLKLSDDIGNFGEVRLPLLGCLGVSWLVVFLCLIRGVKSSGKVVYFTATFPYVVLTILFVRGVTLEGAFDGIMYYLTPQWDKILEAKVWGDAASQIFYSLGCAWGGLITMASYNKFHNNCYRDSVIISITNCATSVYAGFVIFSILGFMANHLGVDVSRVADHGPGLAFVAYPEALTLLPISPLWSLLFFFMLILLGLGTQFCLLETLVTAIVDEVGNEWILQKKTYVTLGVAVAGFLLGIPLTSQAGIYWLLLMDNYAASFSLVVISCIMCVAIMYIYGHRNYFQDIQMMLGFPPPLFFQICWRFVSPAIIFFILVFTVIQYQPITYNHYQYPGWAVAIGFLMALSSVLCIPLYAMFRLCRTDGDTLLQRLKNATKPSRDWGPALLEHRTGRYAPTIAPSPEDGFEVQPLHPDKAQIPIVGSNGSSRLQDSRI
How it was run: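 T98G glioma cells expressing human GlyT1 were pretreated 10 min with compound in HEPES buffer pH 7.4 (0.2% BSA), then incubated with compound plus 250 nM final [3H]glycine for 15 min at room temperature. Intracellular radioactivity was counted after NaOH lysis; 10 μM ALX5407 defined non-specific uptake. IC50 came from 10^−9–10^−5 M curves.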

Row | Structure (SMILES) | IC50 [nM]
1 | COc1cccnc1CN1C(=O)C(F)(F)c2c([C@H](C)O)cccc21 [Compound 247, 3,3-difluoro-4-[(1S)-1-hydroxyethyl]-1-[(3-methoxypyridin-2-yl)methyl]-1,3-dihydro-2H-indol-2-one] | 580
2 | COc1nc(Cl)ccc1CN1C(=O)C(F)(F)c2c([C@H](C)O)cccc21 [Compound 230, 1-[(6-chloro-2-methoxypyridin-3-yl)methyl]-3,3-difluoro-4-[(1S)-1-hydroxyethyl]-1,3-dihydro-2H-indol-2-one] | 63
3 | C[C@H](O)c1cccc2c1C(F)(F)C(=O)N2Cc1ccnc(C#N)c1F [Compound 173, 4-({3,3-difluoro-4-[(1S)-1-hydroxyethyl]-2-oxo-2,3-dihydro-1H-indol-1-yl}methyl)-3-fluoropyridine-2-carbonitrile] | 19
4 | C[C@H](O)c1cccc2c1C(F)(F)C(=O)N2Cc1cccc(C#N)n1 [Compound 177, 6-({3,3-difluoro-4-[(1S)-1-hydroxyethyl]-2-oxo-2,3-dihydro-1H-indol-1-yl}methyl)pyridine-2-carbonitrile] | 24
5 | C[C@H](O)c1cccc2c1C(F)(F)C(=O)N2Cc1ccnc(C#N)c1Cl [Compound 192] | 67
6 | C[C@H](O)c1cccc2c1C(F)(F)C(=O)N2Cc1cnc(F)c(C#N)c1 [Compound 235, 5-({3,3-difluoro-4-[(1S)-1-hydroxyethyl]-2-oxo-2,3-dihydro-1H-indol-1-yl}methyl)-2-fluoropyridine-3-carbonitrile] | 23
7 | C[C@H](O)c1cccc2c1C(F)(F)C(=O)N2Cc1ccc(Cl)nc1Cl [Compound 224, 1-[(2,6-dichloropyridin-3-yl)methyl]-3,3-difluoro-4-[(1S)-1-hydroxyethyl]-1,3-dihydro-2H-indol-2-one] | 740
8 | C[C@H](O)c1cccc2c1C(F)(F)C(=O)N2Cc1ccncc1Cl [Compound 185, 1-[(3-chloropyridin-4-yl)methyl]-3,3-difluoro-4-[(1S)-1-hydroxyethyl]-1,3-dihydro-2H-indol-2-one] | 280
9 | O=C1N(Cc2ccc(Cl)cn2)c2cccc(C(O)C(F)F)c2C1(F)F (single isomer, unassigned) [Compound 162, 1-[(5-chloropyridin-2-yl)methyl]-4-(2,2-difluoro-1-hydroxyethyl)-3,3-difluoro-1,3-dihydro-2H-indol-2-one] | 220
10 | C[C@H](O)c1cccc2c1C(F)(F)C(=O)N2Cc1ncc(C(F)(F)F)cc1Cl [Compound 221, 1-{[3-chloro-5-(trifluoromethyl)pyridin-2-yl]methyl)-3,3-difluoro-4-[(1S)-1-hydroxyethyl]-1,3-dihydro-2H-indol-2-one] | 33
11 | C[C@H](O)c1cccc2c1C(F)(F)C(=O)N2Cc1ncc(F)cc1Br [Compound 226, 1-[(3-bromo-5-fluoropyridin-2-yl)methyl]-3,3-difluoro-4-[(1S)-1-hydroxyethyl]-1,3-dihydro-2H-indol-2-one] | 40
12 | O=C1N(Cc2ccc(C(F)(F)F)cn2)c2cccc(C(O)C(F)F)c2C1(F)F (single isomer, unassigned) [Compound 169] | 56
13 | CC(O)c1c(F)ccc2c1C(F)(F)C(=O)N2Cc1cncc(Cl)c1 (single isomer, unassigned) [Compound 181, 1-[(5-chloropyridin-3-yl)methyl]-3,3,5-trifluoro-4-(1-hydroxyethyl)-1,3-dihydro-2H-indol-2-one] | 310
14 | O=C1N(Cc2ccnc(C3CC3)c2)c2cccc(C(O)C(F)F)c2C1(F)F (single isomer, unassigned) [Compound 180, 1-[(2-cyclopropylpyridin-4-yl)methyl]-4-(2,2-difluoro-1-hydroxyethyl)-3,3-difluoro-1,3-dihydro-2H-indol-2-one] | 53
15 | C[C@H](O)c1cccc2c1C(F)(F)C(=O)N2Cc1cnc(F)c(Br)c1 [Compound 228, 1-[(5-bromo-6-fluoropyridin-3-yl)methyl]-3,3-difluoro-4-[(1S)-1-hydroxyethyl]-1,3-dihydro-2H-indol-2-one] | 2.1
16 | C[C@H](O)c1cccc2c1C(F)(F)C(=O)N2Cc1ccc(C(F)(F)F)c(Cl)n1 [Compound 238, 1-{[6-chloro-5-(trifluoromethyl)pyridin-2-yl]methyl}-3,3-difluoro-4-[(1S)-1-hydroxyethyl]-1,3-dihydro-2H-indol-2-one] | 6.2

same assay, conditions: glycine uptake inhibition

Row | Structure (SMILES) | IC50 [nM]
17 | O=C1N(Cc2cccc(C(F)F)n2)c2cccc(C(O)C(F)F)c2C1(F)F (single isomer, unassigned) [Compound 153, 4-(2,2-difluoro-1-hydroxyethyl)-1-{[6-(difluoromethyl)pyridin-2-yl]methyl}-3,3-difluoro-1,3-dihydro-2H-indol-2-one] | 130
18 | CC(O)c1cccc2c1C(F)(F)C(=O)N2Cc1cncc(Cl)c1 (single isomer, unassigned) [Compound 6, 1-[(5-chloropyridin-3-yl)methyl]-3,3-difluoro-4-(1-hydroxyethyl)-1,3-dihydro-2H-indol-2-one] | 3700
19 | C[C@H](O)c1cccc2c1C(F)(F)C(=O)N2Cc1n[nH]c2ccccc12 [Compound 89, 3,3-difluoro-4-[(1S)-1-hydroxyethyl]-1-(1H-indazol-3-ylmethyl)-1,3-dihydro-2H-indol-2-one] | 190
20 | O=C1N(Cc2cccc(Cl)n2)c2cccc(C(O)CF)c2C1(F)F (stereo not drawn) [Compound 11, 1-[(6-chloropyridin-2-yl)methyl]-3,3-difluoro-4-(2-fluoro-1-hydroxyethyl)-1,3-dihydro-2H-indol-2-one] | 17
21 | C[C@H](O)c1cccc2c1C(F)(F)C(=O)N2Cc1ccnc(-n2cncn2)c1 [Compound 69, 3,3-difluoro-4-[(1S)-1-hydroxyethyl]-1-{[2-(1H-1,2,4-triazol-1-yl)pyridin-4-yl]methyl}-1,3-dihydro-2H-indol-2-one] | 45
22 | COc1ccnc(CN2C(=O)C(F)(F)c3c([C@H](C)O)cccc32)c1 [Compound 66, 3,3-difluoro-4-[(1S)-1-hydroxyethyl]-1-[(4-methoxypyridin-2-yl)methyl]-1,3-dihydro-2H-indol-2-one] | 130
23 | C[C@H](O)c1cccc2c1C(F)(F)C(=O)N2Cc1ccc2ccccc2n1 [Compound 77, 3,3-difluoro-4-[(1S)-1-hydroxyethyl]-1-(quinolin-2-ylmethyl)-1,3-dihydro-2H-indol-2-one] | 37
24 | Cn1c(CN2C(=O)C(F)(F)c3c([C@@H](O)C(F)(F)F)cccc32)nc2ccccc21 [Compound 137] | 150
25 | C[C@H](O)c1cccc2c1C(F)(F)C(=O)N2Cc1cncc(-n2cncn2)c1 [Compound 129] | 6900
26 | N#Cc1cc(CN2C(=O)C(F)(F)c3c(C(O)C(F)(F)F)cccc32)ccn1 (single isomer, unassigned) [Compound 20, 4-{[3,3-difluoro-2-oxo-4-(2,2,2-trifluoro-1-hydroxyethyl)-2,3-dihydro-1H-indol-1-yl]methyl}pyridine-2-carbonitrile] | 2900
27 | O=C1N(Cc2cncc(Cl)c2)c2ccc(F)c(C(O)C(F)F)c2C1(F)F (single isomer, unassigned) [Compound 136] | 1700
28 | C[C@H](O)c1cccc2c1C(F)(F)C(=O)N2Cc1ccnc(C(F)F)c1 [Compound 117, 1-{[2-(difluoromethyl)pyridin-4-yl]methyl}-3,3-difluoro-4-[(1S)-1-hydroxyethyl]-1,3-dihydro-2H-indol-2-one] | 31
29 | C[C@H](O)c1cccc2c1C(F)(F)C(=O)N2Cc1cnc2ccccc2c1 [Compound 74, 3,3-difluoro-4-[(1S)-1-hydroxyethyl)-1-(quinolin-3-ylmethyl)-1,3-dihydro-2H-indol-2-one] | 39
30 | C[C@H](O)c1cccc2c1C(F)(F)C(=O)N2Cc1cccc(-n2cncn2)n1 [Compound 62, 3,3-difluoro-4-[(1S)-1-hydroxyethyl]-1-{[6-(1H-1,2,4-triazol-1-yl)pyridin-2-yl]methyl}-1,3-dihydro-2H-indol-2-one] | 230
31 | C[C@H](O)c1cccc2c1C(F)(F)C(=O)N2Cc1noc2ccccc12 [Compound 119, 1-(1,2-benzoxazol-3-ylmethyl)-3,3-difluoro-4-[(1S)-1-hydroxyethyl]-1,3-dihydro-2H-indol-2-one] | 77
32 | O=C1N(Cc2cncc(Cl)c2)c2cccc(C(O)C(F)(F)F)c2C1(F)F (single isomer, unassigned) [Compound 23, 1-[(5-chloropyridin-3-yl)methyl]-3,3-difluoro-4-(2,2,2-trifluoro-1-hydroxyethyl)-1,3-dihydro-2H-indol-2-one] | 38
33 | C[C@H](O)c1cccc2c1C(F)(F)C(=O)N2Cc1ccsc1 [Compound 80, 3,3-difluoro-4-[(1S)-1-hydroxyethyl]-1-(thiophen-3-ylmethyl)-1,3-dihydro-2H-indol-2-one] | 28
